According to US10939680B2, “Herbicidal composition” (priority 2014, dated 2021):

Columns and labels:
[1] = test system: blackgrass (Alopecurus myosuroides); assay: Efficiency test of the herbicidal composition on blackgrass in field crops; assay type: in vivo; conditions: for percentage of weeds eliminated, Trial No. ALS12H48 -05: 44 DAA; for percentage of weeds eliminated, Trial No. ALS11H56-01: 50 DAA; for Maximum percentage of weeds eliminated: maximum of the trials; for Maximum percentage of weeds eliminated / Minimum percentage of weeds eliminated: 44-50 DAA; for Minimum percentage of weeds eliminated: minimum of the trials
Description: Trials were also carried out to show the efficiency of the herbicidal composition referred to in the invention on a second weed called blackgrass. This plant is an annual plant and has traditionally been seen as a weed in cultivated fields.
The composition was tested on crops including crops of beetroot (Sugar beet, Beta vulgaris), oilseed rape (OSR, Brassica napus).
The same compounds that were used in Example 1 were evaluated for efficiency.
In the same manner as for Example 1, different trials were carried out in different fields, in each which a plant of interest was cultivated.
In this example, tests were carried out on two plots of oilseed rape, on the one hand, and in a lot of beetroot on the other hand.
The efficiency of different products and the herbicidal composition referred to in the invention have been evaluated at different intervals following the application (DAA) of the aforementioned products onto the crop in question.
For example, the efficiency of products has been measured at 44, 46 and 50 days following application of the products.

[2] = test system: rye-grass (Lolium multiflorum); assay: Efficiency test of the herbicidal composition on rye-grass in oilseed rape fields; assay type: in vivo; conditions: for percentage of weeds eliminated, Trial ALS11H56-02 / percentage of weeds eliminated, Trial ALS11H56-04 / percentage of weeds eliminated, Trial ALS12H56-03: crop OSR; for percentage of weeds eliminated, Trial ALS11H56-02 / percentage of weeds eliminated, Trial ALS11H56-04: 53 DAA; for percentage of weeds eliminated, Trial ALS12H56-03: 58 DAA; for Maximum percentage of weeds eliminated: maximum of three OSR trials; for Maximum percentage of weeds eliminated / Minimum percentage of weeds eliminated: 53-58 DAA; for Minimum percentage of weeds eliminated: minimum of three OSR trials
Source text: This plant, also called […] or Italian rye-grass (Lolium multiflorum) is traditionally considered to be a pest.
The composition has been tested on different parcels of oilseed rape (OSR for Oilseed rape, Brassica napus).
Findings relating to damages caused by the different compounds that were trialed are set out in percentages of weeds eliminated from 0 to 100% with respect to a trialed lot in which no herbicidal treatment was applied. The number, 0, corresponds to no observed damage to weeds whereas the number, 100, corresponds to an elimination of the entirety of the weeds.
Further, a volume of 0.8 L of the aforementioned composition has been applied per hectare to the treated lot.
Quizalofop-p-ethyl and flauzifop-p-butyl belong to the aryloxyphenoxypropionate family. A volume of 1.2 L of quizalofop-p-ethyl per hectare and a volume of 1.5 L of flauzifop-p-butyl per hectare have respectively been applied.
The compositions—ALSNC10HCLQ01 0.8 and Q+C 1:1 (0.4-0.5 liters per hectare) and quizalofop-p-ethyl (1.2 liters per hectare) which were tested have been diluted, prior to their application, in 1 L of adjuvant oil (Actirob).
Different trials have been conducted in different fields where oilseed rape (OSR) is grown. The efficiency of different products and of the herbicidal composition referred to in the invention have been evaluated at different time intervals following the application of the said products to the crop in question (DAA means “days after application”). For example, the efficiency of products has been measured 53 and 58 days after application to the field of oilseed rape. These intervals following application of the composition are necessary and adequate to enable the ultimate efficiency of the trialed products to be judged.

Row | Compound | percentage of weeds eliminated, Trial No. ALS12H48 -05 ([1]; crop OSR) [%] | percentage of weeds eliminated, Trial No. ALS11H56-01 ([1]; crop OSR) [%] | Maximum percentage of weeds eliminated [1] [%] | Minimum percentage of weeds eliminated [1] [%] | percentage of weeds eliminated, Trial ALS11H56-02 [2] [%] | percentage of weeds eliminated, Trial ALS11H56-04 [2] [%] | percentage of weeds eliminated, Trial ALS12H56-03 [2] [%] | Maximum percentage of weeds eliminated [2] [%] | Minimum percentage of weeds eliminated [2] [%] | percentage of weeds eliminated, Trial No. ALS11H42-02 ([1]; crop OSR, 46 DAA) [%]
1 | CCCCOC(=O)[C@@H](C)Oc1ccc(Oc2ccc(C(F)(F)F)cn2)cc1 [flauzifop-p-butyl] | 52 | 76 | 76 | 52 | 3 | 66 | 46 | 66 | 3 | 
2 | CCOC(=O)[C@@H](C)Oc1ccc(Oc2cnc3cc(Cl)ccc3n2)cc1 [quizalofop-p-ethyl] | 50 | 63 | 63 | 30 | 26 | 76 | 68 | 76 | 26 | 30
